Experimental data: patent US20230233569A1 (Revolution Medicines, Inc., priority 2020, published 2023)
pEC50, pIC50: −log10 of the molar value. Read-outs that look alike come from different tables or passages of the source.

Tests used:
KRAS G12C = KRAS G12C (Homo sapiens, UniProt P01116+P62937, G12C); assay: Ras-Raf disruption / FRET / MOA assay (BRAF RBD); assay type: biochemical; settings: KRAS G12C FRET data IC50, Ras-Raf disruption, with Cyclophilin A
Summary of the method: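 His6-K-Ras G12C-GMPPNP (12.5 nM), GST-BRAF RBD (50 nM) and tagless Cyclophilin A (25 μM) incubated 3 h at 25 °C with compound (10-point 3-fold series from 30 μM), pH 7.3 HEPES buffer. Anti-His Eu/anti-GST APC added for 1.5 h; decreased TR-FRET ratio vs DMSO gives IC50.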

AsPC-1 (K-Ras G12D) [1] = assay: Potency assay: pERK; assay type: cell-based; settings: Homo sapiens
AsPC-1 (K-Ras G12D) [2] = assay: CellTiter-Glo cell viability assay; assay type: cell-based; settings: Homo sapiens, ASPC1, 120 h
Protocol: Determination of Cell Viability in RAS Mutant Cancer Cell Lines
Protocol: CellTiter-Glo® Cell Viability Assay
Note—The following protocol describes a procedure for monitoring cell viability of K-Ras mutant cancer cell lines in response to a compound of the invention. Other RAS isoforms may be employed, though the number of cells to be seeded will vary based on cell line used.
Test compounds (132.5 nL) were directly dispensed into the assay plates containing cells. […] On day 5, assay plates and their contents were equilibrated to room temperature for approximately 30 minutes. […] Luminescence was measured using the PerkinElmer Enspire. Data were normalized by the following: (Sample signal/Avg. DMSO)*100. The data were fit using a four-parameter logistic fit.

KRAS G12S = KRAS G12S (Homo sapiens, UniProt P01116+P62937, G12S); assay: Ras-Raf disruption / FRET / MOA assay (BRAF RBD); assay type: biochemical; settings: KRAS G12S FRET data IC50, Ras-Raf disruption, with Cyclophilin A
Summary of the method: (§1)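 TR-FRET in 25 mM HEPES pH 7.3, 100 mM NaCl, 5 mM MgCl2, 0.1% BSA, 0.002% Tween20 with 25 μM Cyclophilin A, 12.5 nM His6-Ras-GMPPNP, 50 nM GST-BRAF RBD; compound 10-point 3-fold series from 30 μM. After 3 h at 25 °C, Eu anti-His/APC anti-GST added for 1.5 h; IC50 from ratio decrease versus DMSO.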

KRAS WT = KRAS WT (Homo sapiens, UniProt P01116+P62937); assay: Ras-Raf disruption / FRET / MOA assay (BRAF RBD); assay type: biochemical; settings: KRAS WT FRET data IC50, Ras-Raf disruption, with Cyclophilin A
Summary of the method: as §1

KRAS G13C = KRAS G13C (Homo sapiens, UniProt P01116+P62937, G13C); assay: Ras-Raf disruption / FRET / MOA assay (BRAF RBD); assay type: biochemical; settings: KRAS G13C FRET data IC50, Ras-Raf disruption, with Cyclophilin A
Summary of the method: as §1

NRAS Q61R = NRAS Q61R (Homo sapiens, UniProt P01111+P62937, Q61R); assay: Ras-Raf disruption / FRET / MOA assay (BRAF RBD); assay type: biochemical
Summary of the method: as §1

NRAS Q61K = NRAS Q61K (Homo sapiens, UniProt P01111+P62937, Q61K); assay: Ras-Raf disruption / FRET / MOA assay (BRAF RBD); assay type: biochemical
Summary of the method: as §1

KRAS G12D = KRAS G12D (Homo sapiens, UniProt P01116+P62937, G12D); assay: Ras-Raf disruption / FRET / MOA assay (BRAF RBD); assay type: biochemical; settings: KRAS G12D FRET data IC50, Ras-Raf disruption, with Cyclophilin A
Summary of the method: as §1

KRAS G12V = KRAS G12V (Homo sapiens, UniProt P01116+P62937, G12V); assay: Ras-Raf disruption / FRET / MOA assay (BRAF RBD); assay type: biochemical; settings: KRAS G12V FRET data IC50, Ras-Raf disruption, with Cyclophilin A
Summary of the method: as §1

KRAS Q61H = KRAS Q61H (Homo sapiens, UniProt P01116+P62937, Q61H); assay: Ras-Raf disruption / FRET / MOA assay (BRAF RBD); assay type: biochemical
Summary of the method: as §1

KRAS G13D = KRAS G13D (Homo sapiens, UniProt P01116+P62937, G13D); assay: Ras-Raf disruption / FRET / MOA assay (BRAF RBD); assay type: biochemical; settings: KRAS G13D FRET data IC50, Ras-Raf disruption, with Cyclophilin A
Summary of the method: as §1

NRAS WT = NRAS WT (Homo sapiens, UniProt P01111+P62937); assay: Ras-Raf disruption / FRET / MOA assay (BRAF RBD); assay type: biochemical
Summary of the method: as §1

NRAS G12C = NRAS G12C (Homo sapiens, UniProt P01111+P62937, G12C); assay: Ras-Raf disruption / FRET / MOA assay (BRAF RBD); assay type: biochemical; settings: NRAS G12C FRET data IC50, NRAS G12C
Summary of the method: as §1

[3] = read-out: AsPC-1 Cell Viability assay data IC50, K-Ras G12D, 5-day treatment

Chain of KRAS G13C (P01116 1-169 isoform P01116-2 G13C limits assumed): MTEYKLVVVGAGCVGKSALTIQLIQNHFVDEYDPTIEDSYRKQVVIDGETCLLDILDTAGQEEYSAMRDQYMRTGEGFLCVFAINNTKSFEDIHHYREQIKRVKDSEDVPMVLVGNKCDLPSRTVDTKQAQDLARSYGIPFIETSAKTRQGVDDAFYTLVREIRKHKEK
Chain of KRAS G13C (P62937 whole entry): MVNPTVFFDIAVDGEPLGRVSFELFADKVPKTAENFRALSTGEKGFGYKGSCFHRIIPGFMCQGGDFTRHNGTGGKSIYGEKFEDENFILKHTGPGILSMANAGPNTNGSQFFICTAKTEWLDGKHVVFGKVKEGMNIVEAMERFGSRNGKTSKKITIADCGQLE
Chain of NRAS WT (P01111 whole entry): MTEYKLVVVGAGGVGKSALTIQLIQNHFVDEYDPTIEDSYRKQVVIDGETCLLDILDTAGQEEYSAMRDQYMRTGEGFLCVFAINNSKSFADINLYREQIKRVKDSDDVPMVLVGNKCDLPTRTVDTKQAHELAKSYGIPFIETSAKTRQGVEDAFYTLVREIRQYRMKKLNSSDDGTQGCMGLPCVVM
Chain of NRAS WT (P62937 whole entry): as the sequence (P62937 whole entry) above
Chain of KRAS Q61H (P01116 1-169 isoform P01116-2 Q61H limits assumed): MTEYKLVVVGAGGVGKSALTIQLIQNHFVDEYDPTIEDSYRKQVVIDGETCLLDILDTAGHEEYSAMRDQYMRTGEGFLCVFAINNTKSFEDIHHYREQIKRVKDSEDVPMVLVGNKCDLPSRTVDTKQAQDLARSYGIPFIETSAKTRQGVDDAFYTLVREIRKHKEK
Chain of KRAS Q61H (P62937 whole entry): as the sequence (P62937 whole entry) above
Chain of KRAS G12V (P01116 1-169 isoform P01116-2 G12V limits assumed): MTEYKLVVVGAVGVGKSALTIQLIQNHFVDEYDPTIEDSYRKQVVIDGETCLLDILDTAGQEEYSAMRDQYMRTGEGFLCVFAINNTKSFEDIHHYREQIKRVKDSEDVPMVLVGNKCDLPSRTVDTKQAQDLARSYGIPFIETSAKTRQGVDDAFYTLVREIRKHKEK
Chain of KRAS G12V (P62937 whole entry): as the sequence (P62937 whole entry) above
Chain of NRAS G12C (P01111 whole entry G12C): as the sequence (P01111 whole entry) above, with G12C counted along it
Chain of NRAS G12C (P62937 whole entry): as the sequence (P62937 whole entry) above
Chain of KRAS WT (P01116 1-169 isoform P01116-2 limits assumed): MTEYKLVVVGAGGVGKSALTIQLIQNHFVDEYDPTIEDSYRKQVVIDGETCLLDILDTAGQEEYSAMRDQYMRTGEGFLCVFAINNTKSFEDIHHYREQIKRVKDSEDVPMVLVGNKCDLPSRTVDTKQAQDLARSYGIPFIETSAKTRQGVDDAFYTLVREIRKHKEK
Chain of KRAS WT (P62937 whole entry): as the sequence (P62937 whole entry) above
Chain of KRAS G12D (P01116 1-169 isoform P01116-2 G12D limits assumed): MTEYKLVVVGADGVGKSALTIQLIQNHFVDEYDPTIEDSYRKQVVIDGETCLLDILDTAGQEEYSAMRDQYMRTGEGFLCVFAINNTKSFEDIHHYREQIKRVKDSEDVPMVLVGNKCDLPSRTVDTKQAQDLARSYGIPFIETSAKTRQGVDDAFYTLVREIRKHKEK
Chain of KRAS G12D (P62937 whole entry): as the sequence (P62937 whole entry) above
Chain of KRAS G12S (P01116 1-169 isoform P01116-2 G12S limits assumed): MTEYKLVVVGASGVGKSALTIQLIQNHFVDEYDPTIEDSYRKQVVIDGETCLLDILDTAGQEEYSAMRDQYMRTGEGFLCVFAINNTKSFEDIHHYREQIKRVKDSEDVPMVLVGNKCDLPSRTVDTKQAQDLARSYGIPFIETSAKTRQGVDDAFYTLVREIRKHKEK
Chain of KRAS G12S (P62937 whole entry): as the sequence (P62937 whole entry) above
Chain of NRAS Q61K (P01111 whole entry Q61K): as the sequence (P01111 whole entry) above, with Q61K counted along it
Chain of NRAS Q61K (P62937 whole entry): as the sequence (P62937 whole entry) above
Chain of KRAS G12C (P01116 1-169 isoform P01116-2 G12C limits assumed): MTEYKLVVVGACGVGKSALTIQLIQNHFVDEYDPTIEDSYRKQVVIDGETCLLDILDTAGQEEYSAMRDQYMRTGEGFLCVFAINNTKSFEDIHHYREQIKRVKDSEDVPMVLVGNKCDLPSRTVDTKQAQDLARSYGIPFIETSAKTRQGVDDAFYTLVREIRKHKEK
Chain of KRAS G12C (P62937 whole entry): as the sequence (P62937 whole entry) above
Chain of KRAS G13D (P01116 1-169 isoform P01116-2 G13D limits assumed): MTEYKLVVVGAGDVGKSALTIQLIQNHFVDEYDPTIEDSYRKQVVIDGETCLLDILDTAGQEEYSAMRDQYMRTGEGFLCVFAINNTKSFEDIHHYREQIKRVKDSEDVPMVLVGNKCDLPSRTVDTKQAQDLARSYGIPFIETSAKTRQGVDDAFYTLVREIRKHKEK
Chain of KRAS G13D (P62937 whole entry): as the sequence (P62937 whole entry) above
Chain of NRAS Q61R (P01111 whole entry Q61R): as the sequence (P01111 whole entry) above, with Q61R counted along it
Chain of NRAS Q61R (P62937 whole entry): as the sequence (P62937 whole entry) above

Row | SMILES | pIC50 (KRAS G12C) | pEC50 (AsPC-1 (K-Ras G12D) [1]; ASPC1, AsPC-1 KRAS G12D, read-out: pERK EC50) | pIC50 (AsPC-1 (K-Ras G12D) [2]; K-Ras G12D, 5-day treatment, read-out: AsPC-1 Cell Viability assay data IC50) | pIC50 (KRAS G12S) | pIC50 (KRAS WT) | pIC50 (KRAS G13C) | pIC50 (NRAS Q61R) | pIC50 (NRAS Q61K) | pIC50 (KRAS G12D) | pIC50 (KRAS G12V) | pIC50 (KRAS Q61H) | pIC50 (KRAS G13D) | pIC50 (NRAS WT) | pIC50 (NRAS G12C) | pEC50 (AsPC-1 (K-Ras G12D) [1]; ASPC1, read-out: pERK EC50) | pIC50 (AsPC-1 (K-Ras G12D) [2]; [3])
1 | CCn1c(-c2cccnc2[C@H](C)OC)c2c3cc(ccc31)-c1cc(O)cc(c1)C[C@H](NC(=O)[C@H](C(C)C)N(C)C(=O)[C@]13C[C@H]1CCN3C(=O)[C@@H]1CN1)C(=O)N1CCC[C@H](N1)C(=O)OCC(C)(C)C2 [Example 166] | 6.00 to 7.00 | > 5.30 | 5.00 to 6.00 | 6.00 to 7.00 | 6.00 to 7.00 | 6.00 to 7.00 | 5.00 to 6.00 | 5.00 to 6.00 | 6.00 to 7.00 | 6.00 to 7.00 | 7.00 to 8.00 | 6.00 to 7.00 | 6.00 to 7.00 | 6.00 to 7.00 | – | –
2 | CCn1c(-c2cccnc2[C@H](C)OC)c2c3cc(ccc31)-c1cc(O)cc(c1)C[C@H](NC(=O)[C@H](C(C)C)N(C)C(=O)CN(C)C(=O)[C@H]1CN1CCCN1CCCC1=O)C(=O)N1CCC[C@H](N1)C(=O)OCC(C)(C)C2 (stereo partly drawn) [Example 268, (2R)—N-(2-(((2S)-1-(((6^3S,4S)-1^1-ethyl-2^5-hydroxy-1^2-(2-((S)-1-methoxyethyl)pyridin-3-yl)-10,10-dimethyl-5,7-dioxo-6^1,6^2,6^3,6^4,6^5,6^6-hexahydro-1^1H-8-oxa-1(5,3)-indola-6(1,3)-pyridazina-2(1,3)-benzenacycloundecaphane-4-yl)amino)-3-methyl-1-oxobutan-2-yl)(methyl)amino)-2-oxoethyl)-N-methyl-1-(3-(2-oxopyrrolidin-1-yl)propyl)aziridine-2-carboxamide] | > 8.00 | – | – | 7.00 to 8.00 | 7.00 to 8.00 | 7.00 to 8.00 | 6.00 to 7.00 | 6.00 to 7.00 | 6.00 to 7.00 | 7.00 to 8.00 | 7.00 to 8.00 | 6.00 to 7.00 | 7.00 to 8.00 | > 8.00 | > 5.30 | 5.00 to 6.00
3 | CCn1c(-c2cccnc2[C@H](C)OC)c2c3cc(ccc31)-c1cc(O)cc(c1)C[C@H](NC(=O)[C@H](C(C)C)N(C)C(=O)CN(C)C(=O)[C@@H]1CN1CCCN1CCCC1=O)C(=O)N1CCC[C@H](N1)C(=O)OCC(C)(C)C2 (stereo partly shown) [Example 269] | > 8.00 | – | – | 7.00 to 8.00 | 7.00 to 8.00 | 7.00 to 8.00 | 6.00 to 7.00 | 6.00 to 7.00 | 7.00 to 8.00 | 7.00 to 8.00 | 7.00 to 8.00 | 6.00 to 7.00 | 7.00 to 8.00 | > 8.00 | > 5.30 | 5.00 to 6.00
4 | CCn1c(-c2cccnc2[C@H](C)OC)c2c3cc(ccc31)-c1cc(O)cc(c1)C[C@H](NC(=O)[C@H](C(C)C)N(C)C(=O)CN(C)C(=O)[C@@H]1CN1CC(=O)N(C)C)C(=O)N1CCC[C@H](N1)C(=O)OCC(C)(C)C2 (stereo partly shown) [Example 271] | > 8.00 | – | – | 7.00 to 8.00 | 7.00 to 8.00 | 7.00 to 8.00 | 6.00 to 7.00 | 6.00 to 7.00 | 6.00 to 7.00 | 6.00 to 7.00 | 7.00 to 8.00 | 6.00 to 7.00 | 6.00 to 7.00 | > 8.00 | > 5.30 | < 5.00
5 | CCn1c(-c2cccnc2[C@H](C)OC)c2c3cc(ccc31)-c1cc(O)cc(c1)C[C@H](NC(=O)[C@H](C(C)C)N(C)C(=O)CN(C)C(=O)[C@H]1CN1CCCN1CCOC1=O)C(=O)N1CCC[C@H](N1)C(=O)OCC(C)(C)C2 (stereo partly shown) [Example 272] | > 8.00 | – | – | 7.00 to 8.00 | 7.00 to 8.00 | 7.00 to 8.00 | 6.00 to 7.00 | 6.00 to 7.00 | 6.00 to 7.00 | 7.00 to 8.00 | 7.00 to 8.00 | 6.00 to 7.00 | 7.00 to 8.00 | > 8.00 | > 5.30 | 5.00 to 6.00
